Data as given in US20050277627A1, “Colchinol derivatives as vascular damaging agents” (priority 2000, published 2005).

Assays:
[1] = system: Hras5 tumours (NIH 3T3 fibroblasts transfected with Harvey ras, clone 5) in nude mice; assay: Hras5 necrosis model; format: in vivo; settings: 25 mg/kg; single dose, culled 24 hours after dosing; male nude mice
Protocol: NIH 3T3 fibroblasts transfected with Harvey ras, clone 5, (Hras5 cells) were kept in continual passage in Dulbecco's modifed Eagles medium (DMEM) containing 10% foetal bovine serum (FBS) and 1% glutamine, at 37° C. in a humidified incubator gassed with 7.5% carbon dioxide and 92.5% […]. Cells were implanted subcutaneously into the left flank of male nude mice (8-10 weeks of age) at an inoculum of 2×10^5 cells/mouse. Tumours were measured using calipers and randomised into groups of 2-4 mice between days 9-14 after implant. Mice were dosed with compounds, either intravenously or intraperitoneally, once on day of randomisation and culled 24 hours after dosing. Compounds were dissolved in 20% hydroxypropyl beta cyclodextrin in physiological saline at pH 7 and dosed in a volume of 0.1 ml per 10 g body weight. Tumours were excised, weighed and placed in buffered formalin. Area of necrosis in individual tumours was assessed from a haematoxylin/eosin stained-slide by a pathologist and scored from 0, meaning no significant change, to 10, meaning 91-100% necrosis. The activity of examples 5 and 7 (described hereinafter) against tumour vasculature was measured by the fluorescent dye method described hereinabove. Example 1 scored 6.6 at 25 mg/kg.

[2] = system: tumour vasculature in CaNT tumour-bearing mice; assay: Activity against tumour vasculature measured by fluorescent dye (Hoechst 33342); format: in vivo; settings: 50 mg/kg intraperitoneally, dye injected 24 hours after drug treatment
Protocol: (b) Activity Against Tumour Vasculature Measured by Fluorescent Dye
Tumour functional vascular volume in CaNT tumour-bearing mice was measured using the fluorescent dye Hoechst 33342 according to the method of Smith et al (Brit. Jnl. Cancer 1988, 57, 247-253). Five animals were used in control and treated groups. The fluorescent dye was dissolved in saline at 6.25 mg/ml and injected intravenously at 10 mg/kg 24 hours after intraperitoneal drug treatment. One minute later, animals were killed and tumours excised and frozen; 10 μm sections were cut at 3 different levels and observed under UV illumination using an Olympus microscope equipped with epifluorescence. Blood vessels were identified by their fluorescent outlines and vascular volume was quantified using a point scoring system based on that described by Chalkley, (Jnl. Natl. Cancer Inst., 1943, 4, 47-53). All estimates were based on counting a minimum of 100 fields from sections cut at the 3 different levels.

mammalian tubulin = settings: O. Boye et al Med. Chem. Res., 1991, 1, 142-150; read-out: IC50 in a tubulin polymerisation assay; cited from earlier work

Row | Structure (SMILES) | necrosis score (0 = no significant change, 10 = 91-100% necrosis) [1] | decrease in perfused vascular volume relative to control [2] [%] | IC50 (mammalian tubulin) [µM]
1 | COc1cc2c(c(OC)c1OC)-c1ccc(OC(=O)CCCC(=O)N3CCN(C(C)=O)CC3)cc1[C@@H](NC(C)=O)CC2 [Example 1, (5S)-5-Acetylamino-9,10,11-trimethoxy-6,7-dihydro-5H-dibenzo[a,c]cyclohepten-3-yl 5-(4-acetylpiperazin-1-yl)-5-oxopentanoate] | 6.6 |  | 
2 | COc1cc2c(c(OC)c1OC)-c1ccc(N)cc1C(NC(C)=O)CC2 (stereo not drawn) [N-[3-amino-9,10,11-trimethoxy-6,7-dihydro-5H-dibenzo[a,c]cyclohepten-5-yl]acetamide] |  | 88 | 58
